For assay [1], the target named is T1, amylin receptor subtype 3 (AMY3) (Homo sapiens, UniProt O60896+P30988).
T1 construct: expressed in transfected cells
T1 sequence (P30988 25-474): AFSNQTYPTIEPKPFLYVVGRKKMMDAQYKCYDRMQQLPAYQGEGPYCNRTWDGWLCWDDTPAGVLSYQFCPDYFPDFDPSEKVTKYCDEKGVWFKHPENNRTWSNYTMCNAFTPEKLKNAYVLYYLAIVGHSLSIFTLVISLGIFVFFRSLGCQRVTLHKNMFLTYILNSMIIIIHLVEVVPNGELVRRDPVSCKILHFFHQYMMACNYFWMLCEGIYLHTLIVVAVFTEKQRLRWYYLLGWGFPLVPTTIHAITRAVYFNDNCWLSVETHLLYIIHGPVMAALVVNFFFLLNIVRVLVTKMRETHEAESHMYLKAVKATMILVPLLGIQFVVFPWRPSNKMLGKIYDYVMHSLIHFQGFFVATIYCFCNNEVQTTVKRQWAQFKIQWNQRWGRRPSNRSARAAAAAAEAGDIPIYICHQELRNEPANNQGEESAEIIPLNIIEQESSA
T1 sequence (O60896 24-148): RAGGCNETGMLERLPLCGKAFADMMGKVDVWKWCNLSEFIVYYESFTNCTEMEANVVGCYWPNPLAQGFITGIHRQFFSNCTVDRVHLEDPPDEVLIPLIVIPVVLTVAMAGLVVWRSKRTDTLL
The assay can be described thus: cAMP assay in amylin receptor subtype 3 expressing cells (AMY3-HEK), ELISA and in-cell Western. It is filed as cell-based. As to conditions: for IC50: compound and human amylin applied simultaneously, read-out: IC50 required to block hAmylin induced cAMP increase. How it is done:
An initial set of 10 compounds was screened using a cyclic AMP (cyclic adenosinemonophosphate, cAMP) assay in amylin receptor subtype 3 expressing cells.
Cell Cultures. Amylin receptor subtypes (AMY3-HEK cells) stably expressed in human embryonic kidney (HEK293) cell-line were generated and characterized as described in a previous published article from our laboratory (Fu et al., J. Biol. Chem. 2012). The AMY3-HEK cells were grown in a 5% CO2 humidified incubator at 37° C. with DMEM, 10% FBS, and 100 μg/mL Zeocin medium.
Two cAMP detection methods were used to validate the findings.
ELISA (enzyme-linked immunosorbent assay). Cellular cAMP levels were measured using a parameter cyclic AMP assay kit (R&D Systems) according to the manufacturer's instructions. Briefly, AMY3-HEK cells were plated on 24-well plates overnight. These cells were then incubated with or without the assay compounds and hAmylin for 5 min. The cells were lysed with lysis buffer provided in the assay kit. Standard curves were plotted using the cAMP standards provided in the ELISA kits. All samples were analyzed in duplicate. The plate is measured at 450 nm. Data was plotted, and non-linear regression was fitted with four parameters using Prism software (GraphPad Software, La Jolla, Calif.).
In-cell Western blot technique. Intracellular cAMP signaling profiles were also determined using in-cell Western blot technique as previously described (Fu W, et al., J Biol Chem. 2012; 287(22):18820-30). AMY3-HEK cells were seeded at 10,000 cells/well in a 96-well plate (Nalge Nunc Intl., Rochester, N.Y.) in DMEM, 10% FBS, Zeocin medium and cultured overnight. […] For cyclic adenosinemonophosphate (cAMP) quantification, mouse monoclonal anti-cAMP (R&D Systems) was used as a primary antibody, and IRDye 800 goat anti mouse antibody (LI-COR) was used as a secondary antibody, whereas Sapphire700 and DRAQ5 were used for cell number normalization (LI-COR). […]

Assay [2] concerns amylin receptor. The assay can be described thus: downstream phosphoERK response. It is filed as cell-based. As to conditions: among Compounds 22-25.
Assay [3] has as its system N2a (mouse) neuronal cells. The assay can be described thus: MTT cell death assay, N2a neuronal cells. The following applies: 10 μM Aβ1-42 for 24 hours. It is filed as cell-based. On the procedure: (§1) MTT Cell Death Assay. The N2a (mouse) and SK-N-SH (human) neuronal cells were seeded to 5000 cells/well in a 96-well plate in DMEM medium, 10% FBS and incubated overnight. Cells in culture medium were incubated either with or without the assay compounds and Aβ1-42, 10 μM for 24-48 h. At the end of treatment, 20 μL of 5 mg/mL 3-(4,5-dimethylthiazol-2-yl)-2,5-diphenyltetrazolium bromide (MTT, Sigma) was added to each well and incubated at 37° C. for 3 h. Medium was removed, 100 μL of MTT solvent (isopropanol with 4 mM HCl) was added to each well, and the plates were incubated for 30 min at room temperature on a rotating shaker. Plates were analyzed on a microplate reader at a 562 nm wavelength.
(§2) FIGS. 2A and 2B. In mouse and human neuronal cell lines co-application of Compound 3 blunted human amylin and amyloid beta induced cytotoxicity. Neuronal cell lines N2a and SK-N-HS were treated with increasing concentrations of Compound 3 plus 10 μM Aβ1-42 or 5 μM hAmylin for 48 h.
A general note: Tetrazolium assays rely on reduction of a dye to a coloured formazan, in cell work by metabolically active cells.

The subject of assay [4] is SK-N-SH (human) neuronal cells. The assay can be described thus: MTT cell death / cytotoxicity assay, SK-N-SH neuronal cells. It is filed as cell-based. As to conditions: 10 μM Aβ1-42 for 24 hours. On the procedure: as §1, §2
Assay [5] relates to N2a cells. Briefly: Live/Dead cell assay. The following applies: data not shown. It is filed as cell-based, mouse. On the procedure: Live/Dead cell assay. LIVE/DEAD™ Viability/Cytotoxicity Kit from ThermoFisher Scientific (Invitrogen) was used according to the instructions of the manufacturer. Briefly, The N2a cells were cultured in 8 well Lab-Tek chamber slide (ThermoFisher Scientific, Nunc). Cells were incubated either with or without the assay compounds, followed by treatment with Aβ1-42 for 24 h. At the end of treatment, the cells were washed three times with D-PBS, followed added live/dead reagent in D-PBS and culture for 30 min. Then fixed the cells with 4% paraformaldehyde for 10 min. Further washed the cells with PBS three times and sealed with coverslip. View the labeled cells under fluorescence microscope. Fluorescent microscopy images were acquired with an Axioplan-2 fluorescence microscope with AxioVision software (Carl Zeiss Ltd., Toronto, ON, Canada). Live/Dead cells were analyzed with Image J software (Schneider, C. A., Rasband, W. S., Eliceiri, K. W. “NIH Image to ImageJ: 25 years of image analysis”. Nature Methods 2012; 9:671-675).

In assay [6] the test system is brain hippocampal slices. The assay can be described thus: hippocampal long term potentiation (LTP) electrophysiology, slices from wild type mice. As to conditions: for effect on human amylin-induced depression/reduction of LTP: hippocampal slices, Compounds 3 and 23 at 1 μM. Further details: species or system mouse. The text has this:
Hippocampal long term potentiation (LTP) electrophysiology experiments: an in vitro cellular surrogate for memory. Brains were quickly removed from mice following decapitation, placed in a cold artificial cerebral spinal fluid (aCSF) on a vibratome chamber and transverse sections cut through the hippocampus. The aCSF contained (in mM) 124 NaCl, 3 KCl, 2.4 CaCl2), 2 MgCl2, 1.25 NaH2PO4, 26 NaHCO3 and 10 D-glucose, and was equilibrated with 95% O2 and 5% CO2. Hippocampal slices ([…]) were maintained in aCSF-filled holding chamber at room temperature for at least 1 hour and individually transferred to the submerged glass bottom recording chamber, which was constantly perfused with aCSF (2 mL/min) at 30° C. Field excitatory postsynaptic potential (fEPSP) was recorded with a metallic (Pt/Ir) electrode (FHC, Bowdoin, Me.) from the stratum radiatum layer of Cornu ammonis 1 region of the hippocampus (CA1) area, and the Schaffer collateral afferents were stimulated with 100-μs test pulses via a bipolar cluster electrode (FHC) (Kimura et al., 2012, Kimura et al. 2016). To evaluate basal synaptic transmission, we applied different stimulation strengths (75 μA to 300 μA in steps of 25 μA) and plotted the amplitudes of presynaptic fiber volleys versus the corresponding fEPSP slopes to compare the slope of input/output (I/O) curves of fEPSP. For long-term potentiation (LTP) experiments, the stimulus strength was set to elicit 40-50% of the maximum fEPSP amplitude and test pulses were delivered to Schaffer collaterals once every 30 seconds. LTP was induced by 3-theta-burst stimulation (3-TBS) protocol (each burst consisted of 4 pulses at 100 Hz with a 200-ms inter-burst interval). Before 3-TBS or drug application, the responses were monitored for at least 10 minutes to ensure a stable baseline of fEPSP. […] Results were from various treatment groups were plotted as histograms with means±standard error (SE). […]

The test system of assay [7] is hippocampal brain slices from transgenic AD mice (TgCRND8). The assay can be described thus: hippocampal LTP electrophysiology, slices from transgenic AD mice (TgCRND8). More on the design: species or system mouse. The following applies: compared with age-matched control/wild type mice. An excerpt:
Hippocampal long term potentiation (LTP) electrophysiology experiments: an in vitro cellular surrogate for memory. Brains were quickly removed from mice following decapitation, placed in a cold artificial cerebral spinal fluid (aCSF) on a vibratome chamber and transverse sections cut through the hippocampus. The aCSF contained (in mM) 124 NaCl, 3 KCl, 2.4 CaCl2), 2 MgCl2, 1.25 NaH2PO4, 26 NaHCO3 and 10 D-glucose, and was equilibrated with 95% O2 and 5% CO2. Hippocampal slices ([…]) were maintained in aCSF-filled holding chamber at room temperature for at least 1 hour and individually transferred to the submerged glass bottom recording chamber, which was constantly perfused with aCSF (2 mL/min) at 30° C. Field excitatory postsynaptic potential (fEPSP) was recorded with a metallic (Pt/Ir) electrode (FHC, Bowdoin, Me.) from the stratum radiatum layer of Cornu ammonis 1 region of the hippocampus (CA1) area, and the Schaffer collateral afferents were stimulated with 100-μs test pulses via a bipolar cluster electrode (FHC) (Kimura et al., 2012, Kimura et al. 2016). […] Before 3-TBS or drug application, the responses were monitored for at least 10 minutes to ensure a stable baseline of fEPSP. […]

Assay [8] concerns Aβ plaques. The assay can be described thus: Aβ plaque load (FIG. 8). It is filed as in vivo.
Assay [9] relates to neurons. As to conditions: Jhamandas et al., 2004; 2011; 2012; cited from earlier work.
Assay [10] deals with hippocampus of Alzheimer's disease mice (TgCRND8). The following applies: Kimura et al., 2012; 2016; cited from earlier work.

The text below walks through data of US20220226335A1, “Non-Peptidic Heterocycle-Containing Compounds for the Treatment of Alzheimer?s Disease” (The Governors of the University of Alberta, priority 2019, published 2022).

Where two headings read alike, the source gives them in different places. Where no end group is shown, it is not given here.

With `Cc1nc(C)c(CCC(=O)N2CC(=O)Nc3ccccc32)c(=O)[nH]1` [Compound 23, 4-(3-(2,4-dimethyl-6-oxo-1,6-dihydropyrimidin-5-yl)propanoyl)-3,4-dihydroquinoxalin-2(1H)-one], the IC50 (as a rule, the concentration that inhibits the measured activity by half) in [1] (0.1 μM hAmylin) came to 1 nM; in [1] (1 μM hAmylin) it was 150 nM. For the same compound, the “potency rank in cAMP assay” value in assay [1] (among Compounds 22-25) was “most potent of these four analogues”. The “potency rank in downstream phosphoERK response” value in [2] is reported as “most potent of these four analogues”. For the same compound, the “neuroprotection against amyloid beta toxicity” value in assay [3] and in [4] was “neuroprotective against amyloid beta toxicity” each time. Besides, in [5], the “neuroprotective effects against Aβ toxicity, Live/Dead cell assay” value is reported as “confirmed neuroprotective effects”. Moreover, the “effect on human amylin-induced depression/reduction of LTP” value in assay [6] is recorded as “restored the reduction in LTP by nanomolar dose of human amylim (h-Amylin) to control levels”. For the same compound, the “effect on amyloid beta (Aβ)-induced reduction in LTP” value in assay [6] (nanomolar dose of Aβ, compound 1 μM) is reported as “restored to control levels”. Moreover, the “effect on chronically depressed LTP in transgenic AD mice slices” value in assay [7] is given as “restoration of LTP in AD mice to levels comparable to wild type mice”. In addition, the “area covered by plaques” value in assay [8] was “decreases”. In addition, the “total Aβ plaques” value in assay [8] is “decreases”.

Turning to `COC(=O)N[C@H](C(=O)N1CCC[C@H]1c1ncc(-c2ccccc2)[nH]1)C(C)C` [AVI9030, methyl N-[(1S)-2-methyl-1-[[(2S)-2-(5-phenyl-1H-imidazol-2-yl)-1-pyrrolidinyl]carbonyl]propyl]carbamate, reference compound], the “effect on human amylin-induced depression/reduction of LTP” value in assay [6] was “did not block human amylin-induced reduction of LTP”.

For the compound “AC253: peptide antagonist of the amylin receptor, SEQ ID NO: 1 (Ac-LGRLSQELHRLQTYPRTNTGSNTY)”, the “neuroprotection against Aβ toxicity” value in assay [9] was “neuroprotective against Aβ toxicity”. In addition, the “effect on Aβ- or human amylin-induced depression of long-term potentiation” value in [10] is listed as “can reverse impairment of Aβ- or human amylin-induced depression of long-term potentiation”.

As for “cyclized AC253: cyclized AC253 (CLGRLSQELHRLQTYPRTNTGSNTYC; also: cyclised, mode of ring closure not given here) [reference compound]”, in [8], the “area covered by plaques” value is recorded as “decreases” and the “total Aβ plaques” value was “decreases”.
